# Read-outs that look alike come from different tables or passages of the source.
# Legend:
# in vivo = conditions: mouse, in vivo, po
# Procedure: Male and female white mice (CFLP strain, 18-22 g) are used, 10 animals per dose. The test compounds are administered orally in a volume of 20 ml/kg. After administration the mice are observed for a period of 7 days. The animals are kept in plastic boxes, on wood litter, at room temperature. The animals receive standard mouse fodder and tap water ad libitum.
# motility = assay: animal or person; assay type: in vivo; conditions: for ED50: Mus musculus, po; for Therapeutical index: Table II, motility inhibition, LD50/ED50
# Procedure: The test is accomplished according to the method of Borsy et al. in a 10-channel Dews system equipment, whereby 3 mice are used per channel. The test compound or the carrier, respectively, is administered orally, and one hour after the said treatment the animals are placed into the apparatus and the number of the interruptions of infrared radiation is registered for 30 minutes.
# The results are summarized in Table II and documented by means of suitable statistics for each experiment.
# [J. Borsy, E. Csanyi, I. Lazar: Arch. Int. Pharmacodyn. 124, 1 (1960)].
# acetic acid writhing = assay: Acetic acid "writhing test" on mice (Newbould); assay type: in vivo, white mice; conditions: for ED50: Mus musculus; for Therapeutical index: acetic acid writhing, LD50/ED50
# Procedure: In the period between the 5th and 10th minutes following the administration of acetic acid the number of the characteristic "writhing" responses is counted for each animal and the "total writhing number" (within 5 minutes) is expressed as the percentage of the value obtained for the control animals. The mice are treated with the test compound and the carrier, respectively, orally 1 hour before the administration of acetic acid. 12 animals are used per dose.
# [Newbould, B. D.: Brit.
# pentetrazole spasm = assay: Inhibition of pentetrazol spasm on mice; conditions: for ED50: Mus musculus, po; for Therapeutical index: Table V, pentetrazole spasm, LD50/ED50
# Procedure: The modified method of Benziger and Hane is used on white mice. Groups consisting of 6 animals are used for each dose. […] The test compounds are administered orally one hour before the treatment with pentetrazole; in the control group the animals obtain the carrier orally at the same points of time.
# The therapeutical index data disclosed in the above Tables are calculated by means of the following equation: [formula]
# hexobarbital narcosis = assay: Hexobarbital narcosis potentiating effect; conditions: for ED50: Mus musculus, po; for Therapeutical index LD50 /ED50: Table I, hexobarbital narcosis
# Procedure: The test is carried out on white mice. Groups consisting of six mice are used for each dose and test compound. The test compound is administered orally and an hour after this treatment narcosis is induced by means of a 40 mg/kg i.v. dose of hexobarbital. The control group receives carrier instead of the test compound.
# Those mice are considered to be having a positive reaction which show a narcosis time at least 2.5 times longer than that of the control group. The ED50 values thus transformed are calculated.
# [1] = tested on: nicotine spasm and lethality; assay: Inhibition of nicotine spasm and lethality on mice (Stone); assay type: in vivo; conditions: Table VIII; for ED50: Mus musculus, oral, 1 h before nicotine 1.4 mg/kg i.v.; for Therapeutical index: nicotine spasm and lethality, LD50/ED50
# Text: [Stone, C. C., Mecklenburg, K. L., Torchiana, M. L.: Arch. Int.
# yohimbin toxicity = assay: animal or person; conditions: for ED50: Mus musculus; for Therapeutical index: Table IV, yohimbin toxicity, LD50/ED50
# Procedure: The test is carried out according to the method of Quinton. Groups consisting of 10 mice are used for each dose. The animal groups are treated with the suitable doses of the test compounds while the control group is treated with a carrier. An hour after the treatment a sublethal dose of yohimbin is administered intraperitoneally in a volume of 20 ml/kg. The perished animals are counted after 1 and 24 hours.
# maximal electroshock = assay: Inhibition of maximal electroshock on mice
# Procedure: The test is carried out on white mice weighing 20-25 g. The animals receive an electric shock through corneal electrodes (50 Hz; 45 mA, 0.4 sec.). A total inhibition of the tonus extensor spasms of the posterior extremities is regarded as the criterium of anticonvulsive effect. The test compound and the carrier, respectively, are administered orally an hour before the electric shock.
# ulcus secretion = assay: animal or person; assay type: in vivo; conditions: Rattus norvegicus, po, 5 h
# Procedure: The test is carried out according to the method of Nakamura on rats (Wistar strain) weighing 150-230 g and fasted for 48 hours. Each animal group consists of 4 male and 4 female rats. On the day of the experiment the pylorus of the animals is bound and the corresponding dose of the test compound is administered orally immidiately after operation. The animals are killed with ether 5 hours after the operation, their stomach is removed, cut along the large curve and placed on plastic plates.
# [2] = Table VII, oral, 1 h before acetic acid i.p., read-out: ED50
compound,measurement,setting,value
"COc1ccc(/C=C/C2=CC(=N/OCC(C)CN(C)C)/CC(C)(C)C2)cc1 (racemic) [Example 25, D,L-5,5-Dimethyl-3-(E)-[(4'-methoxy-phenyl)-vinyl]-1-(E)-(2""-methyl-3""-dimethylamino-propoxyimino)-2-cyclohexane]",LD50 at 168 h,in vivo,1300 mg/kg
same,ED50,motility,~200 mg/kg
same,Therapeutical index,motility,6.5
same,ED50,acetic acid writhing; po,~200 mg/kg
same,Therapeutical index,acetic acid writhing; Table VII,65
same,ED50,pentetrazole spasm,15.5 mg/kg
same,Therapeutical index,pentetrazole spasm,83.9
"CNC1=Nc2ccc(Cl)cc2C(c2ccccc2)=[N+]([O-])C1 [Chlordiazepoxid, reference compound]",LD50 at 168 h,in vivo,620 mg/kg
same,ED50,hexobarbital narcosis,10 mg/kg
same,Therapeutical index LD50 /ED50,hexobarbital narcosis,62.0
"CN1CCN(CCCO/N=C2C=C(/C=C/c3ccccc3)CC(C)(C)C/2)CC1 [Example 2, 5,5-Dimethyl-3-(E)-phenyl-vinyl-1-(E)-(4'-methyl-1'-piperazinyl-propoxyimino)-2-cyclohexene]",LD50 at 168 h,in vivo,2000 mg/kg
same,ED50,[1],78 mg/kg
same,Therapeutical index,[1],25.6
same,ED50,motility,190 mg/kg
same,Therapeutical index,motility,10.5
same,ED50,pentetrazole spasm,140 mg/kg
same,Therapeutical index,pentetrazole spasm,14.3
"CN1CCN(CCCO/N=C2C=C(/C=C/c3ccc(Cl)cc3)CC(C)(C)C/2)CC1 [Example 4, 5,5-Dimethyl-3-(E)-[(4'-chloro-phenyl)-vinyl]-1-(E)-(4""-methyl-1""-piperazinyl-propoxyimino)-2-cyclohexene]",LD50 at 168 h,in vivo,2000 mg/kg
same,ED50,pentetrazole spasm,180 mg/kg
same,Therapeutical index,pentetrazole spasm,11.1
"CN(C)CCCO/N=C1C=C(/C=C/c2ccc(Cl)cc2)CC(C)(C)C/1 [Example 5, 5,5-Dimethyl-3-(E)-[(4'-chloro-phenyl)-vinyl]-1-(E)-(3""-dimethylamino-propoxyimino)-2-cyclohexene]",LD50 at 168 h,in vivo,2000 mg/kg
same,ED50,motility,120 mg/kg
same,Therapeutical index,motility,17.0
same,ED50,acetic acid writhing; [2],155 mg/kg
same,Therapeutical index,acetic acid writhing; Table VII,12.9
same,ED50,pentetrazole spasm,125 mg/kg
same,Therapeutical index,pentetrazole spasm,16.0
"CN(C)CCCO/N=C1C=C(/C=C/c2c(Cl)cccc2Cl)CC(C)(C)C/1 [Example 7, 5,5-Dimethyl-3-[(2',6'-dichloro-phenyl)-vinyl]-1-(E)-(3""-dimethylamino-propoxyimino)-2-cyclohexene]",ED50,yohimbin toxicity,60 mg/kg
same,Therapeutical index,yohimbin toxicity,33.3
same,LD50 at 168 h,in vivo,2000 mg/kg
same,Therapeutical index,[1],25
same,ED50,pentetrazole spasm,80 mg/kg
same,Therapeutical index,pentetrazole spasm,25.0
"CN(C)CCCO/N=C1C=C(/C=C/c2cccc(Cl)c2)CC(C)(C)C/1 [Example 8, 5,5-Dimethyl-3-(E)-[(3'-chloro-phenyl)-vinyl]-1-(E)-(3""-dimethylamino-propoxyimino)-2-cyclohexene]",ED50,yohimbin toxicity,35 mg/kg
same,Therapeutical index,yohimbin toxicity,57.1
same,LD50 at 168 h,in vivo,2000 mg/kg
same,ED50,[1],35 mg/kg
same,ED50,motility,170 mg/kg
same,Therapeutical index,motility,11.8
same,ED50,hexobarbital narcosis,180 mg/kg
same,Therapeutical index LD50 /ED50,hexobarbital narcosis,11.1
same,ED50,acetic acid writhing; [2],178 mg/kg
same,Therapeutical index,acetic acid writhing; Table VII,11.2
same,ED50,pentetrazole spasm,58 mg/kg
same,Therapeutical index,pentetrazole spasm,34.5
"CN(C)CCCO/N=C1C=C(/C=C/c2ccccc2Cl)CC(C)(C)C/1 [Example 9, 5,5-Dimethyl-3-(E)-[(2'-chloro-phenyl)-vinyl]-1-(E)-(3""-dimethylamino-propoxyimino)-2-cyclohexene]",ED50,yohimbin toxicity,50 mg/kg
same,Therapeutical index,yohimbin toxicity,40
same,LD50 at 168 h,in vivo,2000 mg/kg
same,ED50,pentetrazole spasm,160 mg/kg
same,Therapeutical index,pentetrazole spasm,12.5
"COc1ccc(/C=C/C2=CC(=N/OCCCN(C)C)/CC(C)(C)C2)cc1OC [Example 10, 5,5-Dimethyl-3-(E)-[(3',4'-dimethoxy-phenyl)-vinyl]-1-(E)-(3""-dimethylamino-propoxyimino)-2-cyclohexene]",ED50,yohimbin toxicity,40 mg/kg
same,Therapeutical index,yohimbin toxicity,25
same,LD50 at 168 h,in vivo,1000 mg/kg
same,ED50,motility,60 mg/kg
same,Therapeutical index,motility,16.7
same,ED50,acetic acid writhing; [2],153 mg/kg
same,Therapeutical index,acetic acid writhing; Table VII,6.5
"COc1ccc(/C=C/C2=CC(=N/OCCCN(C)C)/CC(C)(C)C2)cc1 [Example 11, 5,5-Dimethyl-3-(E)-[(4'-methoxy-phenyl)-vinyl]-1-(E)-(3""-dimethylamino-propoxyimino)-2-cyclohexene]",ED50,yohimbin toxicity,40 mg/kg
same,Therapeutical index,yohimbin toxicity,50
same,LD50 at 168 h,in vivo,2000 mg/kg
same,ED50,hexobarbital narcosis,140 mg/kg
same,Therapeutical index LD50 /ED50,hexobarbital narcosis,14.3
same,ED50,pentetrazole spasm,78 mg/kg
same,Therapeutical index,pentetrazole spasm,25.6
CC(C)N(CCO/N=C1C=C(/C=C/c2ccccc2)CC(C)(C)C/1)C(C)C [Example 12],LD50 at 168 h,in vivo,1000 mg/kg
same,ED50,hexobarbital narcosis,100 mg/kg
same,ED50,acetic acid writhing; [2],50 mg/kg
same,Therapeutical index,acetic acid writhing; Table VII,20.0
same,ED50,pentetrazole spasm,23 mg/kg
same,Therapeutical index,pentetrazole spasm,43.5
"CC(C)N(CCO/N=C1C=C(/C=C/c2ccc(Cl)cc2)CC(C)(C)C/1)C(C)C [Example 14, 5,5-Dimethyl-3-(E)-[(4'-chloro-phenyl)-vinyl]-1-(E)-2'""-[bis-(2""-methyl-ethyl)-amino-ethoxyimino]-2-cyclohexene]",LD50 at 168 h,in vivo,2000 mg/kg
same,ED50,pentetrazole spasm,70 mg/kg
same,Therapeutical index,pentetrazole spasm,28.5
"CN(C)CCO/N=C1C=C(/C=C/c2ccc(Cl)cc2)CC(C)(C)C/1 [Example 15, 5,5-Dimethyl-3-(E)-[(4'-chloro-phenyl)-vinyl]-1-(E)-(2""-dimethylamino-ethoxyimino)-cyclohexene]",LD50 at 168 h,in vivo,2000 mg/kg
same,ED50,[1],70 mg/kg
same,Therapeutical index,[1],28.6
same,ED50,hexobarbital narcosis,25 mg/kg
same,Therapeutical index LD50 /ED50,hexobarbital narcosis,80.0
same,ED50,pentetrazole spasm,120 mg/kg
same,Therapeutical index,pentetrazole spasm,16.6
"CC1(C)CC(/C=C/c2ccccc2)=CC(=N/OCCN2CCCCC2)/C1 [Example 16, 5,5-Dimethyl-3-(E)-phenyl-vinyl-1-(E)-(2'-N-piperidyl-ethyl)-oxyimino-2-cyclohexene]",LD50 at 168 h,in vivo,1850 mg/kg
same,ED50,[1],70 mg/kg
same,Therapeutical index,[1],26.4
same,ED50,motility,150 mg/kg
same,Therapeutical index,motility,12.3
same,ED50,hexobarbital narcosis,40 mg/kg
same,Therapeutical index LD50 /ED50,hexobarbital narcosis,46.0
same,ED50,pentetrazole spasm,185 mg/kg
same,Therapeutical index,pentetrazole spasm,10.0
"CC1(C)CC(/C=C/c2ccccc2)=CC(=N/OCCN2CCOCC2)/C1 [Example 17, 5,5-Dimethyl-3-(E)-phenyl-vinyl-1-(E)-(N-morpholino-ethoxyimino)-2-cyclohexene]",LD50 at 168 h,in vivo,1600 mg/kg
same,ED50,[1],40 mg/kg
same,Therapeutical index,[1],40.0
same,ED50,hexobarbital narcosis,13 mg/kg
same,Therapeutical index LD50 /ED50,hexobarbital narcosis,123.0
same,ED50,pentetrazole spasm,148 mg/kg
same,Therapeutical index,pentetrazole spasm,10.8
"CCN(CC)CCO/N=C1C=C(/C=C/c2ccc(OC)cc2)CC(C)(C)C/1 [Example 23, 5,5-Dimethyl-3-(E)-[(4'-methoxy-phenyl)-vinyl]-1-(E)-(2""-diethylamino-ethoxyimino)-2-cyclohexene]",LD50 at 168 h,in vivo,1000 mg/kg
same,ED50,pentetrazole spasm,58 mg/kg
same,Therapeutical index,pentetrazole spasm,17.2
"CC1(C)CC(/C=C/c2ccc(Cl)cc2)=CC(=N/OCCCN2CCOCC2)/C1 [Example 24, 5,5-Dimethyl-3-(E)-[(4'-chloro-phenyl)-vinyl]-1-(E)-(N-morpholino-propoxyimino)-2-cyclohexane]",LD50 at 168 h,in vivo,> 1000 mg/kg
same,ED50,pentetrazole spasm,110 mg/kg
same,Therapeutical index,pentetrazole spasm,> 9.1
"CN(C)CCCN1c2ccccc2CCc2ccccc21 [Imipramin, reference compound]",ED50,yohimbin toxicity,21 mg/kg
"CCCC(C)(COC(N)=O)COC(N)=O [Meprobamate, reference compound]",ED50,motility,270 mg/kg
same,ED50,hexobarbital narcosis,260 mg/kg
same,Therapeutical index LD50 /ED50,hexobarbital narcosis,4.2
"CC(=O)Nc1ccc(O)cc1 [Paracetamol, reference compound]",ED50,acetic acid writhing; [2],180 mg/kg
"OC(CCN1CCCCC1)(c1ccccc1)C1CCCCC1 (centres unmarked) [Trihexyphenidyl, reference compound]",ED50,[1],20 mg/kg
"CN1C(=O)OC(C)(C)C1=O [Trimethadion, reference compound]",ED50,"maximal electroshock; Mus musculus, po",400 mg/kg
same,Therapeutical index,"maximal electroshock; Table VI, maximal electroshock, LD50/ED50",5.1
same,ED50,pentetrazole spasm,490 mg/kg
"COc1cc(C(=S)N2CCOCC2)cc(OC)c1OC [Trithiozine, reference compound]",ED50,ulcus secretion,~240 mg/kg
"CCOc1ccccc1OCC1CNCCO1 (centres unmarked) [Viloxazin, reference compound]",ED50,yohimbin toxicity,20 mg/kg

# — US4939142A, “Substituted styrene derivatives” (priority 1989, dated 1990)
